Calls of active or inactive are those of the source.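 The calls were made as follows: active = curve reaches 40% rise within the top valid dose, in every run; inconclusive = runs give conflicting calls; inactive = opposite-direction activity, or every run inactive.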
Test: statin-free myotube ATP level counter-assay – cell-based, no simvastatin, luminescence, dry powder, counter-screen for statin myotoxicity suppressor project, dose response (AID 743334)
Conditions: C2C12 myotubes ATP, CellTiter-Glo luminescence, 48 h; for max activity: hits give high values

C[C@H]1CN([C@@H](C)CO)C(=O)c2cc(N(C)C)ccc2O[C@@H]1CN(C)Cc1ccc(C(=O)Nc2ccccc2N)cc1
ATP level change, positive = increase (at 19.5 µM (top of the series)): 3.03% (inactive)

COc1ccc(S(=O)(=O)Nc2ccc3c(c2)CC(=O)N([C@H](C)CO)C[C@@H](C)[C@H](CN(C)CC2CCCCC2)O3)cc1
max activity: -10.2% (inactive)

N#C[C@H]1[C@H](c2ccc(C#CCC3CCCC3)cc2)[C@@H](CO)N1C(=O)CN1CCOCC1
max activity: -19% (inactive)

O=C(C[C@H]1CC[C@@H]2[C@H](COC[C@H](O)CN2CCC(F)(F)F)O1)NCc1ccc(Oc2ccccc2)cc1
max activity: 9.67% (inactive)

N#C[C@@H]1[C@@H](c2ccc(C#Cc3cccnc3)cc2)[C@@H](CO)N1C(=O)C1CCCC1
max activity: -10.7% (inactive)

C/C=C/c1ccc([C@H]2[C@@H](CO)N(C(=O)NC3CCCC3)[C@H]2C#N)cc1
max activity: -3.18% (inactive)

COc1ccc(C#Cc2cnc3c(c2)C(=O)N([C@H](C)CO)C[C@H](C)[C@H](CN(C)Cc2ccccc2)O3)cc1OC
max activity: 15.6% (inactive)

C[C@@H]1CN([C@H](C)CO)C(=O)Cc2cc(NC(=O)CCCCCC(=O)Nc3ccccc3N)ccc2O[C@@H]1CN(C)Cc1ccc(Oc2ccccc2)cc1
max activity: -23.3% (inactive)

CCCNC(=O)N1[C@H](C#N)[C@@H](c2ccc(C3=CCCCC3)cc2)[C@@H]1CO
max activity: -7.65% (inactive)

C[C@H](CO)N1C[C@H](C)[C@H](CN(C)Cc2ccc(C(=O)Nc3ccccc3N)cc2)Oc2ccc(NC(=O)Nc3cccc4ccccc34)cc2CC1=O
max activity: -21.1% (inactive)

C[C@H](CO)N1C[C@H](C)[C@H](CN(C)Cc2ccc(C(=O)Nc3ccccc3N)cc2)Oc2ccc(N(C)C)cc2C1=O
max activity: -24.5% (inactive)

COCC(=O)N1[C@H](C#N)[C@@H](c2ccc(-c3cccc(F)c3)cc2)[C@@H]1CO
max activity: 6.18% (inactive)

C[C@H]1CN([C@@H](C)CO)C(=O)Cc2cc(NC(=O)CCCCCC(=O)Nc3ccccc3N)ccc2O[C@@H]1CN(C)Cc1ccc(Oc2ccccc2)cc1
max activity: -15.5% (inactive)

C[C@@H]1CN([C@@H](C)CO)C(=O)c2cc(NC(=O)Cc3cn(C)c4ccccc34)ccc2O[C@@H]1CN(C)Cc1ccc(C(=O)Nc2ccccc2N)cc1
max activity: 14.1% (inactive)

N#C[C@H]1[C@@H](c2ccc(-c3cccc(F)c3)cc2)[C@@H](CO)N1C(=O)NC1CCCC1
max activity: -0.663% (inactive)

C[C@H]1CN([C@@H](C)CO)C(=O)Cc2cc(NC(=O)CCCCCC(=O)Nc3ccccc3N)ccc2O[C@H]1CN(C)Cc1ccc(C(F)(F)F)cc1
ATP level change, positive = increase (at 21 µM (top of the series)): 5.44% (inactive)

C[C@H]1CN([C@@H](C)CO)C(=O)Cc2cc(NC(=O)Nc3cccc4ccccc34)ccc2O[C@H]1CN(C)Cc1ccc(C(=O)Nc2ccccc2N)cc1
max activity: 10.8% (inactive)

C[C@@H]1CN([C@H](C)CO)C(=O)c2cc(NC(=O)Cc3cn(C)c4ccccc34)ccc2O[C@H]1CN(C)Cc1ccc(C(=O)Nc2ccccc2N)cc1
max activity: 9.28% (inactive)

N#C[C@@H]1[C@@H](c2ccccc2)[C@H](CO)N1S(=O)(=O)c1ccc(-c2ccccc2)cc1
max activity: -5.62% (inactive)

C[C@H](CO)N1C[C@H](C)[C@H](CN(C)Cc2ccc(Oc3ccccc3)cc2)Oc2ccc(NC(=O)CCCCCC(=O)Nc3ccccc3N)cc2CC1=O
max activity: -48.9% (inactive)

C[C@H]1CN([C@@H](C)CO)C(=O)Cc2cc(NC(=O)CCCCCC(=O)Nc3ccccc3N)ccc2O[C@H]1CN(C)Cc1ccc(Oc2ccccc2)cc1
max activity: -10.2% (inactive)

COc1ccc(-c2ccc([C@@H]3[C@@H](C#N)N(C(=O)NC4CCCC4)[C@H]3CO)cc2)cc1
max activity: 5.47% (inactive)

CC(C)=CCC/C(C)=C/CC/C(C)=C/CC/C(C)=C/CO
max activity: 1.13% (inactive)

CCCNC(=O)N1[C@@H](C#N)[C@@H](c2ccc(-c3ccccc3F)cc2)[C@@H]1CO
max activity: 6.49% (inactive)

Cc1ccc(S(=O)(=O)Nc2ccc3c(c2)CC(=O)N([C@@H](C)CO)C[C@@H](C)[C@H](CN(C)Cc2ccc(-c4ccccc4)cc2)O3)cc1
ATP level change, positive = increase (at 19.5 µM (top of the series)): -0.559% (inactive)

N#C[C@@H]1[C@@H](c2ccccc2-c2ccc(F)cc2)[C@H](CO)N1C(=O)NC1CCCC1
max activity: -6.02% (inactive)

N#C[C@H]1[C@H](c2ccc(C#Cc3ccc(F)cc3)cc2)[C@H](CO)N1c1nc(-c2ccccc2)cs1
max activity: 9.97% (inactive)

N#C[C@@H]1[C@@H](c2ccc(-c3ccc(F)cc3)cc2)[C@H](CO)N1C(=O)Cc1ccccc1
ATP level change, positive = increase (at 19.5 µM (top of the series)): 2.91% (inactive)

C[C@@H]1CN([C@H](C)CO)C(=O)Cc2cc(NC(=O)C3CCCCC3)ccc2O[C@H]1CN(C)Cc1ccc(Cl)c(Cl)c1
ATP level change, positive = increase (at 19.5 µM (top of the series)): 15.1% (inactive)

C[C@H]1CN([C@@H](C)CO)S(=O)(=O)c2ccc(C#CC3CC3)cc2O[C@H]1CN(C)C(=O)Nc1cc(F)ccc1F
max activity: -12.1% (inactive)

COc1ccc(C#Cc2cnc3c(c2)C(=O)N([C@H](C)CO)C[C@H](C)[C@@H](CN(C)C(=O)Nc2cccc(OC)c2)O3)cc1
max activity: 8% (inactive)

N#C[C@H]1[C@H](c2ccc(-c3cccc(F)c3)cc2)[C@@H](CO)N1C(=O)NC1CCCC1
max activity: 1.15% (inactive)

COc1ccc(S(=O)(=O)N(C)C[C@H]2Oc3c(NC(=O)Nc4ccccc4)cccc3C(=O)N([C@H](C)CO)C[C@H]2C)cc1
ATP level change, positive = increase (at 19.5 µM (top of the series)): 7.7% (inactive)

N#C[C@@H]1[C@@H](c2ccc(-c3cccc(F)c3)cc2)[C@@H](CO)N1C(=O)NC1CCCC1
max activity: 2.16% (inactive)

C[C@H](CO)N1C[C@H](C)[C@@H](CN(C)Cc2ccc(C(=O)Nc3ccccc3N)cc2)Oc2ccc(NC(=O)Cc3cn(C)c4ccccc34)cc2C1=O
max activity: -9.11% (inactive)

N#C[C@@H]1[C@@H](c2ccc(C#CC3CCCC3)cc2)[C@H](CO)N1S(=O)(=O)c1ccccc1
max activity: -8.85% (inactive)

C[C@@H]1CN([C@@H](C)CO)C(=O)c2cc(NC(=O)Cc3cn(C)c4ccccc34)ccc2O[C@H]1CN(C)Cc1ccc(C(=O)Nc2ccccc2N)cc1
max activity: -0.192% (inactive)

C[C@H](CO)N1C[C@H](C)[C@@H](CN(C)Cc2ccc(Oc3ccccc3)cc2)Oc2c(NC(=O)Nc3cccc4ccccc34)cccc2C1=O
ATP level change, positive = increase (at 19.5 µM (top of the series)): 8.68% (inactive)

CCS(=O)(=O)N1[C@H](C#N)[C@@H](c2ccc(-c3cccc(F)c3)cc2)[C@@H]1CO
max activity: -8.9% (inactive)

C[C@@H]1CN([C@H](C)CO)C(=O)c2cc(NC(=O)Nc3cccc4ccccc34)ccc2O[C@@H]1CN(C)Cc1ccc(C(=O)Nc2ccccc2N)cc1
max activity: 13.3% (inactive)

C[C@H](CO)N1C[C@H](C)[C@H](CN(C)Cc2ccc(C(=O)Nc3ccccc3N)cc2)Oc2ccc(NC(=O)Cc3cn(C)c4ccccc34)cc2C1=O
max activity: 12.2% (inactive)

C[C@@H]1CN([C@@H](C)CO)C(=O)Cc2cc(NC(=O)CCCCCC(=O)Nc3ccccc3N)ccc2O[C@@H]1CN(C)Cc1ccc(Oc2ccccc2)cc1
max activity: -25.1% (inactive)

N#C[C@H]1N[C@@H](CO)[C@@H]1c1ccc(-c2cccc(F)c2)cc1
max activity: 7.67% (inactive)

N#C[C@@H]1[C@H](c2ccc(-c3cccc(F)c3)cc2)[C@H](CO)N1C(=O)NC1CCCC1
max activity: -18.6% (inactive)

CN1C(=O)c2cc(NC(=O)c3ccc(F)c(F)c3)ccc2OC[C@H]2O[C@@H](CC(=O)Nc3ccc4c(c3)COC4)CC[C@@H]21
max activity: 12.6% (inactive)

N#C[C@@H]1[C@H](c2ccc(-c3cccc(F)c3)cc2)[C@@H](CO)N1C(=O)NC1CCCC1
max activity: -0.345% (inactive)

C[C@H]1CN([C@@H](C)CO)C(=O)Cc2cc(NS(=O)(=O)c3ccc(Cl)cc3)ccc2O[C@@H]1CN(C)CC1CCCCC1
max activity: 4.91% (inactive)

N#C[C@@H]1[C@@H](c2ccccc2-c2cccc(F)c2)[C@H](CO)N1C(=O)NC1CCCC1
max activity: 11.6% (inactive)

Cc1noc(C)c1S(=O)(=O)Nc1ccc2c(c1)CC(=O)N([C@H](C)CO)C[C@H](C)[C@@H](CN(C)Cc1ccc(C(F)(F)F)cc1)O2
ATP level change, positive = increase (at 19.5 µM (top of the series)): 10.6% (inactive)

C[C@@H]1CN([C@H](C)CO)C(=O)Cc2cc(NS(=O)(=O)c3ccc(Cl)cc3)ccc2O[C@H]1CN(C)Cc1ccccc1
ATP level change, positive = increase (at 19.5 µM (top of the series)): 13% (inactive)

O=C(C[C@H]1CC[C@@H]2[C@H](COC[C@@H](O)CN2Cc2ccc(Oc3ccccc3)cc2)O1)N1CCCCC1
max activity: 14% (inactive)

C[C@H]1CN([C@@H](C)CO)C(=O)Cc2cc(NC(=O)CCCCCC(=O)Nc3ccccc3N)ccc2O[C@H]1CN(C)CC1CCCCC1
max activity: 11.1% (inactive)

CC(C)CC#Cc1cnc2c(c1)C(=O)N([C@H](C)CO)C[C@H](C)[C@@H](CN(C)C(=O)Cc1ccccc1)O2
ATP level change, positive = increase (at 21 µM (top of the series)): 6.23% (inactive)

Cc1noc(C)c1S(=O)(=O)Nc1ccc2c(c1)CC(=O)N([C@H](C)CO)C[C@@H](C)[C@@H](CN(C)Cc1ccc(-c3ccccc3)cc1)O2
ATP level change, positive = increase (at 21 µM (top of the series)): 10.4% (inactive)

CN(C)C(=O)c1cccc(-c2ccc([C@@H]3[C@@H](C#N)N(C(=O)C4CCCC4)[C@@H]3CO)cc2)c1
max activity: -5.88% (inactive)

COc1ccc(S(=O)(=O)Nc2cccc3c2O[C@H](CN(C)C(=O)Nc2ccc(F)cc2)[C@H](C)CN([C@@H](C)CO)C3=O)cc1
ATP level change, positive = increase (at 19.5 µM (top of the series)): 14.4% (inactive)

CCCC#Cc1ccc([C@H]2[C@@H](C#N)N(S(=O)(=O)c3cccc(F)c3)[C@H]2CO)cc1
max activity: 3.4% (inactive)

N#C[C@H]1[C@@H](c2ccc(-c3cccc(F)c3)cc2)[C@H](CO)N1C(=O)NC1CCCC1
max activity: 9.12% (inactive)

N#C[C@@H]1[C@@H](c2ccc(C3=CCCCC3)cc2)[C@H](CO)N1C(=O)NC1CCCC1
max activity: -9.58% (inactive)

Cc1ccc(S(=O)(=O)N(C)C[C@@H]2Oc3ccc(NS(=O)(=O)c4ccc(Cl)cc4)cc3C(=O)N([C@H](C)CO)C[C@@H]2C)cc1
ATP level change, positive = increase (at 19.5 µM (top of the series)): -0.772% (inactive)

C[C@H](CO)N1C[C@H](C)[C@H](CN(C)Cc2ccc(C(=O)Nc3ccccc3N)cc2)Oc2ccc(NC(=O)Nc3cccc4ccccc34)cc2C1=O
max activity: -0.211% (inactive)

C[C@@H]1CN([C@@H](C)CO)C(=O)c2cccc(NC(=O)Nc3ccc4c(c3)OCO4)c2O[C@H]1CN(C)Cc1ccc(C(=O)Nc2ccccc2N)cc1
ATP level change, positive = increase (at 19.5 µM (top of the series)): 16.4% (inactive)

Reference: PubChem BioAssay AID743334 (Broad Institute, 2014)
